# Results as given in patent US20260285850A1, “SUBSTITUTED OXAZOLIDINONES AND IMIDAZOLINONES AS HERBICIDES” (FMC CORPORATION, priority 2023, published 2026).
# Assays:
# Format in all cases: in vivo
# rice (Oryza sativa) = test: Test B flooded paddy test, visual plant response rating 0-100; conditions: 250 g ai/ha, Flood, applied to paddy water, evaluated after 13 days
# Method in brief: (§1)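 2-leaf plants; flood 3 cm over soil; compound dosed into paddy water; depth kept constant; greenhouse 13 d; visual scoring vs controls. Dash = no result.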
# [1] = test system: sedge, umbrella (small-flower umbrella sedge, Cyperus difformis); test: as above; conditions: 250 g ai/ha, Flood, applied to paddy water, evaluated after 13 days
# Method in brief: as §1
# [2] = test system: ducksalad (Heteranthera limosa); test: as above; conditions: 250 g ai/ha, Flood, applied to paddy water, evaluated after 13 days
# Method in brief: as §1
# [3] = test system: barnyardgrass (Echinochloa crusgalli); test: as above; conditions: 250 g ai/ha, Flood, applied to paddy water, evaluated after 13 days
# Method in brief: as §1
# [4] = test system: galium (catchweed bedstraw, Galium aparine); test: Test A postemergence application, visual injury rating 0-100; conditions: 10 days
# Method in brief: (§2)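 Visual injury ratings (0, no effect; 100, complete control) were assigned relative to untreated plants 10 days after treatment. Test chemicals, formulated with a surfactant-containing non-phytotoxic solvent, were applied in loam-sand soil either as a directed soil spray before emergence or to emerged plants, and plants were kept in a greenhouse.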
# [5] = test system: green foxtail (Setaria viridis); test: as above; conditions: 10 days
# Method in brief: as §2
# [6] = test system: wheat (Triticum aestivum); test: as above; conditions: 10 days
# Method in brief: as §2
# kochia (Bassia scoparia) [7] = test: as above; conditions: 10 days
# Method in brief: as §2
# corn (Zea mays) [8] = test: as above; conditions: 10 days
# Method in brief: as §2
# [9] = test system: horseweed (Erigeron canadensis); test: as above; conditions: 10 days
# Method in brief: as §2
# [10] = test system: ryegrass, Italian (italian ryegrass, Lolium multiflorum); test: as above; conditions: 10 days
# Method in brief: as §2
# [11] = test system: barnyardgrass (Echinochloa crus-galli); test: as above; conditions: 10 days
# Method in brief: as §2
# [12] = test system: palmer (palmer amaranth, palmer pigweed, Amaranthus palmeri); test: as above; conditions: 10 days
# Method in brief: as §2
# [13] = test system: ragweed (common ragweed, Ambrosia artemisiifolia); test: as above; conditions: 10 days
# Method in brief: as §2
# [14] = test system: blackgrass (Alopecurus myosuroides); test: as above; conditions: 10 days
# Method in brief: as §2
# [15] = test system: oat, wild (wild oat, Avena fatua); test: as above; conditions: 10 days
# Method in brief: as §2
# soybean (Glycine max) [16] = test: as above; conditions: 10 days
# Method in brief: as §2
# [17] = test system: green foxtail (Setaria viridis); test: Test A preemergence soil spray, visual injury rating 0-100; conditions: 10 days, 0 = no effect, 100 = complete control
# Method in brief: as §2
# [18] = test system: wheat (Triticum aestivum); test: as above; conditions: 10 days, 0 = no effect, 100 = complete control
# Method in brief: as §2
# kochia (Bassia scoparia) [19] = test: as above; conditions: 10 days, 0 = no effect, 100 = complete control
# Method in brief: as §2
# corn (Zea mays) [20] = test: as above; conditions: 10 days, 0 = no effect, 100 = complete control
# Method in brief: as §2
# [21] = test system: ryegrass, Italian (italian ryegrass, Lolium multiflorum); test: as above; conditions: 10 days, 0 = no effect, 100 = complete control
# Method in brief: as §2
# [22] = test system: barnyardgrass (Echinochloa crus-galli); test: as above; conditions: 10 days, 0 = no effect, 100 = complete control
# Method in brief: as §2
# [23] = test system: palmer (palmer amaranth, palmer pigweed, Amaranthus palmeri); test: as above; conditions: 10 days, 0 = no effect, 100 = complete control
# Method in brief: as §2
# [24] = test system: ragweed (common ragweed, Ambrosia artemisiifolia); test: as above; conditions: 10 days, 0 = no effect, 100 = complete control
# Method in brief: as §2
# [25] = test system: blackgrass (Alopecurus myosuroides); test: as above; conditions: 10 days, 0 = no effect, 100 = complete control
# Method in brief: as §2
# [26] = test system: oat, wild (wild oat, Avena fatua); test: as above; conditions: 10 days, 0 = no effect, 100 = complete control
# Method in brief: as §2
# soybean (Glycine max) [27] = test: as above; conditions: 10 days, 0 = no effect, 100 = complete control
# Method in brief: as §2
# [28] = 31 g ai/ha, postemergence, 0 = no effect, 100 = complete control
# [29] = Postemergence, 125 g ai/ha, 0 is no effect, 100 is complete control
smiles,measurement,setting,value
CCOC(=O)C1=CCC(NC(=O)C2(C)CN(c3cc(F)cc(F)c3)C(=O)O2)C1 (stereo not shown) [Compound 15],"Plant response rating, Rice (0 to 100 scale, 0 is no effect and 100 is complete control)",rice (Oryza sativa),65
same,"Plant response rating, Sedge, Umbrella (0 to 100 scale, 0 is no effect and 100 is complete control)",[1],70
same,"Plant response rating, Ducksalad (0 to 100 scale, 0 is no effect and 100 is complete control)",[2],80
same,"Plant response rating, Barnyardgrass (0 to 100 scale, 0 is no effect and 100 is complete control)",[3],60
same,Galium plant response rating (0-100),[4]; [28],80
same,Galium plant response rating (0 to 100 scale),[4]; [29],90
same,"Foxtail, Green plant response rating (0-100)",[5]; [28],90
same,"Foxtail, Green plant response rating (0 to 100 scale)",[5]; [29],90
same,Wheat plant response rating (0-100),[6]; [28],90
same,Wheat plant response rating (0 to 100 scale),[6]; [29],90
same,Kochia plant response rating (0-100),kochia (Bassia scoparia) [7]; [28],70
same,Kochia plant response rating (0 to 100 scale),kochia (Bassia scoparia) [7]; [29],70
same,Corn plant response rating (0-100),corn (Zea mays) [8]; [28],100
same,Corn plant response rating (0 to 100 scale),corn (Zea mays) [8]; [29],100
same,Horseweed plant response rating (0-100),[9]; [28],0
same,Horseweed plant response rating (0 to 100 scale),[9]; [29],0
same,"Ryegrass, Italian plant response rating (0-100)",[10]; [28],80
same,"Ryegrass, Italian plant response rating (0 to 100 scale)",[10]; [29],90
same,Barnyardgrass plant response rating (0-100),[11]; [28],100
same,Barnyardgrass plant response rating (0 to 100 scale),[11]; [29],100
same,"Amaranth, Palmer plant response rating (0-100)",[12]; [28],50
same,"Amaranth, Palmer / Pigweed, Palmer plant response rating (0 to 100 scale)",[12]; [29],90
same,Ragweed plant response rating (0-100),[13]; [28],40
same,Ragweed plant response rating (0 to 100 scale),[13]; [29],50
same,Blackgrass plant response rating (0-100),[14]; [28],70
same,Blackgrass plant response rating (0 to 100 scale),[14]; [29],100
same,"Oat, Wild plant response rating (0-100)",[15]; [28],90
same,"Oat, Wild plant response rating (0 to 100 scale)",[15]; [29],90
same,Soybean plant response rating (0-100),soybean (Glycine max) [16]; [28],60
same,Soybean plant response rating (0 to 100 scale),soybean (Glycine max) [16]; [29],70
same,"Foxtail, Green plant response rating (0-100)",[17]; 31 g ai/ha,30
same,"Foxtail, Green plant response rating (0 to 100 scale)",[17]; 125 g ai/ha,100
same,Wheat plant response rating (0-100),[18]; 31 g ai/ha,50
same,Wheat plant response rating (0 to 100 scale),[18]; 125 g ai/ha,90
same,Kochia plant response rating (0-100),kochia (Bassia scoparia) [19]; 31 g ai/ha,0
same,Kochia plant response rating (0 to 100 scale),kochia (Bassia scoparia) [19]; 125 g ai/ha,90
same,Corn plant response rating (0-100),corn (Zea mays) [20]; 31 g ai/ha,20
same,Corn plant response rating (0 to 100 scale),corn (Zea mays) [20]; 125 g ai/ha,60
same,"Ryegrass, Italian plant response rating (0-100)",[21]; 31 g ai/ha,80
same,"Ryegrass, Italian plant response rating (0 to 100 scale)",[21]; 125 g ai/ha,90
same,Barnyardgrass plant response rating (0-100),[22]; 31 g ai/ha,0
same,Barnyardgrass plant response rating (0 to 100 scale),[22]; 125 g ai/ha,100
same,"Amaranth, Palmer plant response rating (0-100)",[23]; 31 g ai/ha,50
same,"Amaranth, Palmer plant response rating (0 to 100 scale)",[23]; 125 g ai/ha,100
same,Ragweed plant response rating (0-100),[24]; 31 g ai/ha,0
same,Ragweed plant response rating (0 to 100 scale),[24]; 125 g ai/ha,0
same,Blackgrass plant response rating (0-100),[25]; 31 g ai/ha,0
same,Blackgrass plant response rating (0 to 100 scale),[25]; 125 g ai/ha,40
same,"Oat, Wild plant response rating (0-100)",[26]; 31 g ai/ha,0
same,"Oat, Wild plant response rating (0 to 100 scale)",[26]; 125 g ai/ha,50
same,Soybean plant response rating (0-100),soybean (Glycine max) [27]; 31 g ai/ha,0
same,Soybean plant response rating (0 to 100 scale),soybean (Glycine max) [27]; 125 g ai/ha,30
